Data reported in article PMC9027599, “Secondary Metabolites in Basil, Bio-Insecticide, Inhibition Effect, and In Silico Molecular Docking against Proteolytic Enzymes of the Red Palm Weevil (Rhynchophorus ferrugineus)” (Plants, 2022).

Experiments:
cysteine protease = assay: Cysteine proteinase activity, Z-Phe-Arg-MNA (in vitro); assay type: biochemical, Rhynchophorus ferrugineus; settings: fourth instar larvae midgut homogenate
Procedure: The activity of cysteine proteinase was determined in the fourth midgut instar larval homogenate of R. ferrugineus using the substrate Z-Phe-Arg-MNA [1]. Ten larvae were carefully removed, dissected, and rinsed repeatedly with NaCl solution (0.9% (w/v). The midgut instar was homogenized in protease assay buffer (500 µL) [5 mM DTT, 50 mM HEPS (N-2-Hydroxyethyl piperazin-N’-2-ethanesulfonic acid), pH 8.0, and 0.1 percent Triton X-100]. The reaction mixture was centrifuged for 30 min at 5000 rpm (Sigma 3k30 cooling centrifuge). The supernatant was utilized to determine the overall activity of proteolytic enzymes and the protein content. The supernatant (10 µL) was incubated for 30 min at 37 °C, and the volume was adjusted to 60 µL using assay buffer (pH 8) before adding 100 µL of substrate (0.5 mM). Prior to adding the substrate, 10 µL enzyme samples were pre-incubated with iodoacetic acid for 10 min. After 60 min at 37 °C of mixture incubation, the reaction was halted with the addition of 1.5 mL mersalyl (5 mM), 0.02 mg/mL fast garnet reactive solution, and 2% Tween 20. The reaction was centrifuged (at 5000 rpm, 6 min), then the absorbance was determined (at 520 nm). The activity of cysteine proteinase was measured using an ELISA quick plate reader at the OD520/60 min/mg of midgut protein. As a blank, a test mixture devoid of enzyme was used. […] The fourth homogenates of midgut larval were produced as reported before in the experiment for determining enzyme activity. As previously disclosed, the inhibitory experiment was performed using a microplate assay. A series of inhibitor concentrations was created to determine the inhibitor’s maximal inhibitory effect. Leupeptin concentrations of 0.01, 0.05, 0.1, and 1.0 mM, PMSF concentrations of 0.1, 1.0, 10, and 50 mM, TLCK and TPCK concentrations of 0.01, 0.05, 0.1, 1, 50, and 100 mM, EDTA concentrations of 0.1, 1, 10, 50, and 100 mM, and iodoacetic acid concentrations of 0.01, 0.05, 0.1, and 1 mM.
As a control, an assay combination devoid of inhibitors was utilized. The absorbance of the enzymes was determined using an ELISA plate quick reader at various wavelengths. The percentage activity of the control enzyme for each inhibitor was evaluated for each enzyme. Protease activity was assayed in vivo in the R. ferrugineus fourth midgut larval instars, which were treated with 1, 10, 50, 100, 500, 1000, and 5000 mg/L of extracts or compounds, measured as described above. Larvae were exposed for 24 h to leaf discs treated with extract and compounds.

metalloprotease [1] = assay: Metalloprotease activity of midgut from larvae treated 24 h (in vivo); set-up: species or system Rhynchophorus ferrugineus; settings: midgut of fourth instar larvae treated for 24 h
Procedure: (§1) A substrate azocasein assessed the metalloproteinases activity in the fourth midgut instar larval homogenate. Ten larvae were carefully removed, dissected, and rinsed repeatedly with NaCl solution (0.9% (w/v). […] After homogenization, the homogenates were centrifuged at 5000 rpm (for 30 min) using a Sigma centrifuge 3k30, and the supernatant was utilized to determine enzyme activity and protein content. The supernatant per experiment (10 µL) was incubated for 20 min at 37 °C, and the volume was adjusted to 60 µL using assay buffer pH 8 before adding azocasein (200 µL, 2% (w/v)). In all instances, 10 µL enzyme samples were incubated for 10 min (except EDTA with 20 min), and EDTA was used as a blocker of metalloproteinase activity before being added to the specific substrate. The reaction was interrupted with 300 µL of trichloroacetic acid (TCA cold, 10% (v/v) and continued at 37 °C for 180 min. The reaction mixture was then centrifuged at 5000 rpm for 20 min (Sigma centrifuge 3k30), sodium hydroxide (10 µL of 10 N) was incorporated into the supernatant, then absorbance was determined using an ELISA plate reader at 450 nm. As a blank, an assay mixture devoid of the enzyme was devoted, the specific activity was determined using the OD450 mg^−1 protein min^−1 value, and a blank solution sample devoid of enzyme solution was determined. To learn more about the proteases found in homogenate preparations of R. ferrugineus fourth midgut larval instars, inhibitors from many different types of mechanisms were used. […] As a control, an assay combination devoid of inhibitors was utilized. The absorbance of the enzymes was determined using an ELISA plate quick reader at various wavelengths. The percentage activity of the control enzyme for each inhibitor was evaluated for each enzyme. […] Larvae were exposed for 24 h to leaf discs treated with extract and compounds.

metalloprotease [2] = assay: Metalloproteinase activity, azocasein (in vitro); assay type: biochemical, Rhynchophorus ferrugineus; settings: fourth instar larvae midgut homogenate
Procedure: as §1

total proteases [3] = assay: Total proteolytic activity of fourth instar midgut homogenate, azocasein (in vitro); assay type: biochemical, Rhynchophorus ferrugineus; settings: fourth instar larvae midgut homogenate
Procedure: (§2) The Lowry technique was used to determine the protein concentrations. Total proteolytic activity was determined in the fourth midgut instar larval (lab strain) homogenate of R. ferrugineus with azocasein in accordance with […] et al. […] [70]. […] Using a Sigma 3k30 cooling centrifuge, reserve homogenates prepared in a previous stage were spun at 5000 rpm for 30 min. Estimates of protein content and total proteolytic enzyme activity were made using the supernatants. The supernatant (10 μL) was incubated at 37 °C for 20 min, and the volume was adjusted to 60 μL using an assay buffer (pH 8), before adding azocasien (200 μL, 2% (w/v)). […] Following that, to activate the reaction, the substrate was introduced 20 min for Leupeptin, so the reaction was halted after 180 min at 37 °C with 300 μL of cool tri-chloroacetic acid (TCA) (10% (v/v). The mixture was centrifuged for 20 min at 5000 rpm (Sigma 3k30 cooling centrifuge). […] To learn more about the proteases found in homogenate preparations of R. ferrugineus fourth midgut larval instars, inhibitors from many different types of mechanisms were used. […] As a control, an assay combination devoid of inhibitors was utilized. The absorbance of the enzymes was determined using an ELISA plate quick reader at various wavelengths. The percentage activity of the control enzyme for each inhibitor was evaluated for each enzyme. […] Larvae were exposed for 24 h to leaf discs treated with extract and compounds.

total proteases [4] = assay: Total protease activity of midgut from larvae treated 24 h (in vivo); set-up: species or system Rhynchophorus ferrugineus; settings: midgut of fourth instar larvae treated for 24 h
Procedure: as §2

Compound | IC50 against cysteine protease (in vitro) (cysteine protease) | IC50 against metalloprotease (in vivo) (metalloprotease [1]) | IC50 against metalloprotease (in vitro) (metalloprotease [2]) | IC50 against total proteases (in vitro) (total proteases [3]) | IC50 against total proteases (in vivo) (total proteases [4])
O=C(/C=C/c1ccc(O)c(O)c1)O[C@H](Cc1ccc(O)c(O)c1)C(=O)O [Rosmarinic acid] | 67.8 µg/mL | 86.7 µg/mL | 48.4 µg/mL | 109.6 µg/mL | 186.2 µg/mL
dicaffeoyl-tartaric acid [Chicoric acid] | 81.2 µg/mL | 74.2 µg/mL | 44.6 µg/mL | 63.1 µg/mL | 146.2 µg/mL
O=C(/C=C/c1ccc(O)c(O)c1)O/C=C\c1ccc(O)c(O)c1 [Nepetoidin B] | 63.3 µg/mL | 95.8 µg/mL | 51.1 µg/mL | 102.4 µg/mL | 179.4 µg/mL
C[C@@H]1O[C@@H](OC[C@H]2O[C@@H](Oc3c(-c4ccc(O)c(O)c4)oc4cc(O)cc(O)c4c3=O)[C@H](O)[C@@H](O)[C@@H]2O)[C@H](O)[C@H](O)[C@H]1O [Quercetin-3-O-rutinoside] | 53.6 µg/mL | 612.4 µg/mL | 37.3 µg/mL | 82.6 µg/mL | 286.4 µg/mL
O=C(O)C[C@H](C(=O)O)[C@@H](O)C(=O)O [Isocitric acid] | 119.1 µg/mL | 169.2 µg/mL | 127.8 µg/mL | 143.3 µg/mL | 486.3 µg/mL
COc1ccc(-c2cc(=O)c3c(O)c(OC)c(OC)cc3o2)cc1 [Salvigenin, 5-Hydroxy-6,7,4′-trimethoxyflavone] | 89.6 µg/mL | 113.7 µg/mL | 49.1 µg/mL | 72.4 µg/mL | 164.8 µg/mL
